Reference: patent US11478526B2, “Methods of reducing neuroinflammation or toxicity induced by amyloid beta (abeta) using glucocorticoid induced leucine zipper (GILZ) analog peptides” (INDIANA UNIVERSITY RESEARCH AND TECHNOLOGY CORPORATION, priority 2016, dated 2022)

Assays:
[1] = biological target: T1, Recombinant human p65 protein (r-p65) (Homo sapiens, UniProt Q04206); test: Plate binding ELISA of GA/PGA with r-p65 (KD by method of Friguet)
T1 construct: purchased Ori-Gene Technologies Inc., Rockville, Md; TP320780
Procedure: We used similar method to determine direct binding kinetics of GA hexapeptides with human r-p65. […] Absorbance at 650 nm was measured with a mixing time of 30 s using BIORAD microplate reader. […] The dissociation constant of the interaction between the GA or the control peptide and r-p65 was determined by the method of Friguet et al., as described. A fraction of the bound r-p65 (x) and the ratio of bound r-p65 to the free GA or control peptide (y) was determined by the equations: x=(A0−A)/(A0), where A0 is the absorbance of r-p65anti-p65 complex in the absence of bound GA or control peptide and y=(A0−A)/(a0−i0)×(A0−A)/(A0), where a0 is the total concentration of GA or control peptide and i0 is the total concentration of r-p65.
Kinetics of PGA:-p65 interaction: The binding kinetics of top five PGA with full length human r-p65 was assessed as described. Plate bound GILZ-P or PGA at increasing concentrations was probed with r-p65-DDK (Ori-Gene Technologies Inc., Rockville, Md.) at constant concentration and detected with anti-DDK.

[2] = test system: primary human fetal brain cells (HFB); test: CTG viability of primary human fetal brain cultures with or without Aβ1-42; format: cell-based; conditions: for viability of Aβ1-42 exposed HFB cells: Aβ1-42 10 μM
Procedure: Functional assays in human primary mixed brain cultures (HFB). Primary cultures of mixed HFB were prepared from the brain parenchyma of aborted fetuses (80-100 days gestational age). The tissues were obtained from the Birth Defects Research Laboratory (BDRL) at the University of Washington, Seattle with approval from the Indiana University Institutional Review Board (IRB). The IRB determined that the use of anonymous human biological materials received from this depository is not considered as human subjects research (supplementary document, s1). The NIH funded BDRL tissue distribution program operates separately in full compliance with all relevant state and federal laws and regulations with donors providing written informed consent.
Fetal brain materials (10-20 g) were shipped overnight in chilled Hibernate-E medium (Invitrogen) supplemented with B27 (Invitrogen), GlutaMAX (Invitrogen) and antibiotic-antimycotic solution (Cellgro). HFB were prepared and cultured as described. Briefly, cells were cultured in Neurobasal medium (Invitrogen) without phenol red supplemented with 1×B27, […] GlutaMAX, 1×antibiotic cocktail, 5 ng/mL recombinant fibroblast growth factor 2 (bFGF) (Invitrogen), and 2 μL/mL Normocin (InVivoGen, San Diego, Calif., USA). Cells were counted and seeded onto poly-D-lysine (Sigma-Aldrich) coated 24-well plates (Corning, Lowell, Mass., USA) at 1.5×10^5 cells per well and maintained at 37° C. in a 5% CO2 incubator. Half media changes were performed every 4th day of culture and morphology was monitored via phase contrast microscopy. Culture medium was removed from cells on day 17 (DIV17) and replaced with Neurobasal medium with B27. […] Cells and conditioned media were harvested and stored for further analysis. Relative ATP concentration was measured using the CTG kit (Promega). Data is presented as ΔRLU=RLU of Aβ1-42 exposed cells-RLU unexposed cells. Conditioned media collected were assessed for specific cytokines using the OptEIA kits (BD Biosciences). Nuclear and cytoplasmic fractions were extracted using the CelLytic™ NuCLEAR™ Extraction Kit (Sigma) following manufacturer's protocol. Five microgram of nuclear extracts was incubated in a 96-well plate coated with oligonucleotides containing the NF-κβ consensus nucleotide sequence (5′-[…]-3′) (SEQ ID NO: 30). The activated NF-κβ bound to DNA was detected by anti-p65 antibody followed by a peroxidase coupled secondary antibody and substrate using the TransAM kit protocol (Active Motif). Nuclear extracts of Raji cells was used as the positive control.
(§1) Select PGA protects against Aβ1-42 induced toxicity, prevents p65 activation and cytokine response in human fetal brain (HFB) cells. […] Viability in terms of relative luminescent Units (RLU) was quantified using a Glowmax luminometer (Promega, Wis.). Data are presented as ARLU=RLU of Aβ1-42 exposed cells-RLU of unexposed cells. […] The mean RLU of vehicle treated HFB varied between 7352.75+/−1265.2 and 16157.5+/−4950. Average RLU of cultures exposed to Aβ1-42 varied between 6067.25+/−903.05 and 11574.25+/−4139.3 in different experiments. […] The culture supernatants were assessed for cytokines by ELISA (R&D Systems, Minn.). […] Primary HFB cultured similarly and harvested at the end of 4 hours was assessed for nuclear p65 using TransAM kit for NF-κB p65 (Active Motif, Calif.).

[3] = test system: activated p65 NF-κB subunit; test: Nuclear p65 DNA binding (TransAM NF-κB ELISA) in HFB; format: cell-based, human; conditions: Aβ1-42 exposed, 4 hours
Procedure: Fetal brain materials (10-20 g) were shipped overnight in chilled Hibernate-E medium (Invitrogen) supplemented with B27 (Invitrogen), GlutaMAX (Invitrogen) and antibiotic-antimycotic solution (Cellgro). HFB were prepared and cultured as described. Briefly, cells were cultured in Neurobasal medium (Invitrogen) without phenol red supplemented with 1×B27, […] GlutaMAX, 1×antibiotic cocktail, 5 ng/mL recombinant fibroblast growth factor 2 (bFGF) (Invitrogen), and 2 μL/mL Normocin (InVivoGen, San Diego, Calif., USA). Cells were counted and seeded onto poly-D-lysine (Sigma-Aldrich) coated 24-well plates (Corning, Lowell, Mass., USA) at 1.5×10^5 cells per well and maintained at 37° C. in a 5% CO2 incubator. Half media changes were performed every 4th day of culture and morphology was monitored via phase contrast microscopy. Culture medium was removed from cells on day 17 (DIV17) and replaced with Neurobasal medium with B27. Appropriate wells were then added vehicle, or carrier peptide or individual GA or control peptide (at 50 μM) for 30 min followed by exposure to Aβ1-42 at a final concentration of 10 μM/well and incubated for 4 hours or 48 hours. Cells and conditioned media were harvested and stored for further analysis. Relative ATP concentration was measured using the CTG kit (Promega). Data is presented as ΔRLU=RLU of Aβ1-42 exposed cells-RLU unexposed cells. Conditioned media collected were assessed for specific cytokines using the OptEIA kits (BD Biosciences). Nuclear and cytoplasmic fractions were extracted using the CelLytic™ NuCLEAR™ Extraction Kit (Sigma) following manufacturer's protocol. Five microgram of nuclear extracts was incubated in a 96-well plate coated with oligonucleotides containing the NF-κβ consensus nucleotide sequence (5′-[…]-3′) (SEQ ID NO: 30). The activated NF-κβ bound to DNA was detected by anti-p65 antibody followed by a peroxidase coupled secondary antibody and substrate using the TransAM kit protocol (Active Motif). Nuclear extracts of Raji cells was used as the positive control.
as §1, with “16157.5+/−4950.” for “16157.5+/−4950. Average RLU of cultures exposed to Aβ1-42 varied between 6067.25+/−903.05 and 11574.25+/−4139.3 in different experiments.”

[4] = dissociation constant, KD, method of Friguet et al.
[5] = PGA at IC50 concentration, 24 hours
[6] = 50 μM peptide, vs untreated Aβ1-42 exposed cultures

T1 sequence (Q04206 whole entry): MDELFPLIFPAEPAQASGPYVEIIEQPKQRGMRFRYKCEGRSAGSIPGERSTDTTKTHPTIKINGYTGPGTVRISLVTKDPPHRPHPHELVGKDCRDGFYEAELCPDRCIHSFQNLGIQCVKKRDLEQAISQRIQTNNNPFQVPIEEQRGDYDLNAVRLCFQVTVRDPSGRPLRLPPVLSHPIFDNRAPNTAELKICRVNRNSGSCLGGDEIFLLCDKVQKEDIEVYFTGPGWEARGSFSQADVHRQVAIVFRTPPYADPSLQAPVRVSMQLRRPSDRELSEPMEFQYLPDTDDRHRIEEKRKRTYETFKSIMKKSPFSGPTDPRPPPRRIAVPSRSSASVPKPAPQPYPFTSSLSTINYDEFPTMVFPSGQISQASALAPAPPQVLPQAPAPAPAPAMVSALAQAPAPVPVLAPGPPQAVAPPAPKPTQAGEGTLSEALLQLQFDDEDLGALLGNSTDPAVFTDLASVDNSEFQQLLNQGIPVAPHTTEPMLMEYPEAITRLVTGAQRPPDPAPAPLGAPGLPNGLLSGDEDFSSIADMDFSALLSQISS

## Ac-EPAPLAPYG-NH2 [PGA-2]
[1]; KD (uM), score 1/0
  Kd: < 3 µM
[1]; [4]
  Kd: 2.29 µM
[2]; PGA at IC50 concentration
  tolerance of HFB cultures (ΔRLU, CTG): well tolerated
[2]; [5]
  viability of Aβ1-42 exposed HFB cells: significantly higher
[3]; PGA at IC50 concentration
  nuclear p65: decreased nuclear p65

## Ac-EPAPESPQV-NH2 [GA-2]
[1]
  affinity for binding r-p65 relative to r-GILZ: greater affinity for binding r-p65 than the full length r-GILZ
[2]; [6]
  viability of Aβ1-42 exposed HFB cells: significantly higher
[3]; 50 μM peptide
  nuclear p65: trend towards decreased nuclear p65

## Ac-EPAPESPQV-NH2 [PGA-4]
[1]; KD (uM), score 1/0
  Kd: > 3 µM
[1]; [4]
  Kd: 3.28 µM
[2]; PGA at IC50 concentration
  tolerance of HFB cultures (ΔRLU, CTG): well tolerated
[2]; [5]
  viability of Aβ1-42 exposed HFB cells: significantly higher
[3]; PGA at IC50 concentration
  nuclear p65: decreased nuclear p65

## Ac-EPAPLAPYG-NH2 [GA-1]
[1]
  affinity for binding r-p65 relative to r-GILZ: greater affinity for binding r-p65 than the full length r-GILZ
[2]; [6]
  viability of Aβ1-42 exposed HFB cells: significantly higher
[3]; 50 μM peptide
  nuclear p65: trend towards decreased nuclear p65
